# Where two headings read alike, the source gives them in different places.
# What was measured:
# resistant melanoma PDX = resistant melanoma PDX model; cited from earlier work
# PD-1 [1] = assay: Flow cytometry with anti-PD-1 antibodies, Jurkat T cells; format: cell-based, human; conditions: same concentration range as BT2, 48 h (FIG. 17B)
# Description: Flow cytometry with anti-PD-1 antibodies. Jurkat T cells were grown in 6 well plates containing RPMI 1640 and 10% FBS. After 24 h, the cells were treated with various concentrations of BT2 or BT3 for 48 h. Alternatively, the cells were incubated with 3 μM BT2 for various times. After treatment, the cells were washed with PBS, and centrifuged at 300×g for 5 min, and resuspended at 5×10^6 cells/ml. The cells were then incubated with BV421 conjugated mouse anti-human CD279 (PD-1) (BD, cat. no. 562516) or BV421 conjugated mouse IgG1 (BD, cat. no. 562438) for 45 min at 22° C. Cells were then washed twice with 1 ml of Stain Buffer, centrifuged and pellets were resuspended in 0.5 ml Stain Buffer. Stained cell suspensions were analyzed by flow cytometry using a BD FACSCanto (II).
# Jurkat T cells express PD-1 (Yi et al., 2023) and are widely used as model human T cells (e.g., Repas et al., 2022). […] BT2's effects were not only dose-dependent but time-dependent. BT2 (3 μM) inhibited PD-1 levels by 50% after 24 h and by 80% after 48 h (FIG. 17C).
# PD-1 [2] = assay: Western blotting for PD-1, Jurkat T cells; format: cell-based, human; conditions: 24 h; for PD-1 expression (Western blot): various concentrations
# Description: (§1) Western blotting. Cells were treated with compounds and times indicated and total cell lysates were prepared in RIPA buffer. Lysates (10 μg) were resolved by SDS-PAGE and transferred to Immobilon-P polyvinylidene difluoride (PVDF) membranes (Millipore, USA).
# (§2) Membranes were blocked with 5% skim milk and incubated with rabbit monoclonal anti-c-Jun (Abcam, cat. no. ab32137; mouse, rat and human reactive) antibody, rabbit monoclonal anti-PD-1 (Abcam, cat. no. ab214421) antibody, mouse monoclonal β-actin antibody (Sigma-Aldrich, cat. no. A5316), anti-phospho-SAPK/JNK (Thr^183/Tyr^185) (98F2) (CST, cat. no. 4671) antibody, anti-phospho-p44/42 MAPK (ERK1/2) (Thr^202/Tyr^204) (D13.14.4E) (CST, cat. no. 4370) antibody, anti-phospho-p38 MAPK (Thr^180/Tyr^182) (D3F9) (CST, cat. no. 4511) antibody, anti-SAPK/JNK antibody (CST, cat. no. 9252), anti-p44/42 MAPK (ERK1/2) (137F5) antibody (CST, cat. no. 4695), anti-p38 MAPK antibody (CST, cat. no. 9212), anti-DUSP8 antibody (Abcam, cat. no. ab198175) or anti-c-MAF (BLR045F) antibody (Abcam, cat. no. ab243901). This was followed by incubation with horseradish peroxidase-conjugated secondary goat anti-rabbit (DAKO, cat. no. P0448) or goat anti-mouse (DAKO, cat. no. P0447) antibody. Chemiluminescence was detected using the Western Lightning Chemiluminescence system (Thermo Scientific, USA) and ImageQuant™ LAS 4000 biomolecular imager (GE Healthcare Life Sciences, USA). Band intensity in images generated with the LAS 4000 was quantified using NIH Image J.
# [3] = system: non-small cell lung carcinoma; conditions: non-small cell lung carcinoma-bearing mice; cited from earlier work
# p-ERK (Thr^202/Tyr^204) [4] = assay: Western blotting for p-ERK, A375 melanoma cells; format: cell-based, human; conditions: 10 or 100 nM, 24 h
# Description: as §1
# as §2, with “4695), anti-p38 MAPK antibody (CST, cat. no. 9212), anti-DUSP8 antibody (Abcam, cat. no. ab198175) or anti-c-MAF (BLR045F) antibody (Abcam, cat. no. ab243901). This was followed by incubation with horseradish peroxidase-conjugated secondary goat anti-rabbit (DAKO, cat. no. P0448) or goat anti-mouse (DAKO, cat. no. P0447) antibody.” left out
# (§3) The effect of BT2 on ERK phosphorylation (p-ERK) was evaluated in human melanoma cells given that MAP kinase activation is key to melanoma progression and the paucity of clinically approved ERK inhibitors. […]
# p-ERK (Thr^202/Tyr^204) [5] = assay: Western blotting for p-ERK, MeWo melanoma cells; format: cell-based, human; conditions: 10 or 100 nM, 24 h
# Description: as §1
# as §2, with “4695), anti-p38 MAPK antibody (CST, cat. no. 9212), anti-DUSP8 antibody (Abcam, cat. no. ab198175) or anti-c-MAF (BLR045F) antibody (Abcam, cat. no. ab243901). This was followed by incubation with horseradish peroxidase-conjugated secondary goat anti-rabbit (DAKO, cat. no. P0448) or goat anti-mouse (DAKO, cat. no. P0447) antibody.” left out
# as §3
# MeWo cells = assay: Apoptosis, flow cytometry with Annexin V-FITC, MeWo; format: cell-based, human; conditions: 1 μM, 24 h
# Description: (§4) Flow cytometry with Annexin V-FITC. Cells were seeded into 6 well plates in normal culture medium containing 10% FBS. After culturing overnight, the cells were incubated in complete medium containing vehicle, BT2 or SCH772984 at 1 μM and left for 24 h. The culture medium was removed and the cells were washed with PBS. Accutase (Stem Cell Technologies, cat. no. 07920) was used to detach the cells. The cells were then washed and centrifuged at 300 g for 5 min and resuspended at 1×10^6 cells/ml in 500 μl of 1× binding buffer (Annexin V-FITC Apoptosis Staining/Detection Kit, Abcam, cat. no. ab14085). The cells were transferred to 12×75 mm tubes and annexin V-FITC/propidium iodide (PI) was added and incubated for 5 min at 22° C. protected from light. Stained cell suspensions were analyzed by flow cytometry using a BD LSRFortessa X20.
# (§5) The morphology of A375 and MeWo cells exposed to 1 μM of BT2 or SCH772984 for 24 h was also assessed.
# A375 cells = assay: Apoptosis, flow cytometry with Annexin V-FITC, A375; format: cell-based, human; conditions: 1 μM, 24 h
# Description: as §4, §5
# advanced melanoma = conditions: cited from earlier work; for 5 year overall survival: advanced melanoma
compound,measurement,setting,value
Cc1cnc(NC2CCOCC2)nc1-n1cnc(C(=O)N[C@H](CN)c2cc(F)cc(Cl)c2)c1 [ASN007],efficacy,resistant melanoma PDX,demonstrates efficacy
"CCN1C(=O)c2cc(N)ccc2Oc2ccccc21 [BT3, 2-amino-10-ethyldibenzo[b,f][1,4]oxazepin-11(10H)-one]",effect on PD-1 expression,PD-1 [1],no inhibitory effect
COc1cccc(-c2cc(=O)c3ccccc3o2)c1N [PD98059],PD-1 expression (Western blot),PD-1 [2],no effect on PD-1 expression
O=C(NOC[C@H](O)CO)c1ccc(F)c(F)c1Nc1ccc(I)cc1F [PD0325901],effect on efficacy of anti-PD-1 antibodies,[3],can enhance the efficacy of anti-PD-1 antibodies
"O=C(Nc1ccc2[nH]nc(-c3ccncc3)c2c1)[C@@H]1CCN(CC(=O)N2CCN(c3ccc(-c4ncccn4)cc3)CC2)C1 [SCH772984, reference compound]","potency in suppressing PD-1 expression, fold less potent than BT2",PD-1 [2]; Western blot,> 10 fold
same,PD-1 expression (Western blot),PD-1 [2],suppressed PD-1 expression
same,"ERK phosphorylation (p-ERK, Western blot)",p-ERK (Thr^202/Tyr^204) [4],suppressed ERK phosphorylation
same,"ERK phosphorylation (p-ERK, Western blot)",p-ERK (Thr^202/Tyr^204) [5],suppressed ERK phosphorylation
same,apoptosis (Annexin V-FITC+ PI−),MeWo cells,no or less potent pro-apoptotic effects
same,apoptosis (Annexin V-FITC+ PI−),A375 cells,no or less potent pro-apoptotic effects
pembrolizumab: anti-PD-1 antibody,patients with treatment-related adverse events,advanced melanoma; advanced melanoma patients,86%
same,5 year overall survival,advanced melanoma; all patients,34%
same,5 year overall survival,advanced melanoma; treatment-naive patients,41%
